We go through one molecule from patent publication US20200390755A1, “COMPOUND FOR TREATING NERVOUS SYSTEM DISEASES AND USE THEREOF” (SHAANXI MICOT TECHNOLOGY CO., LTD., priority 2018, published 2020).

SMILES strings stand for the structures.

For test [1], the system named is WT mice. In words: High-altitude balance beam (5 mm) experiment 2, WT mice. Format: in vivo, mouse. The conditions noted are these: 5 mg/kg/d intragastric. The method, then: 7-week-old N171-82Q HD male mice were paired with female B6C3F1/J hybrid mice to obtain newborn mice. From 21 days of age, male mice were housed in separate cages. 0.5 cm of mouse tail tissue was removed to extract DNA to determine the genotype of the mouse, such that N171-82Q HD mice and WT mice needed for the experiment were obtained. The mice were randomly divided into WT Vehicle group (normal mice), WT test compound group (administration group of normal mice, 5 mg/kg/d, n=10), HD Vehicle group (blank group of HD mice, n=15), HD test compound group (administration groups 1-5 of HD mice, 5 mg/kg/d, n=10). The test compound was suspended in 1% CMC-Na solution and administered by intragastric administration until the end of the study. The weights of the mice were measured every week. Behavioral tests were performed at 12 weeks, 18 weeks, and 24 weeks of age to investigate motor function. At 20 weeks, 3 samples of tissue from each group were used for western blotting and immunohistochemistry. At 24 weeks, MRI scans were performed. At the end of the study, the effect of the test compound on the mortality of mice was evaluated. The software Sigmaplot 13.0 was used for statistical analysis of the data, and the data of each group was expressed as mean standard error (x±SEM). Behavioral test results were analyzed using two-way (genotype and processing factor) ANOVA and post-ho tests, the comparison and statistics of weight data were performed using two-way (genotype and age) ANOVA of repeated measures, and mortality was counted using Kaplan-Meier method. Other measurement data were analyzed by one-way ANOVA. P<0.05 was considered statistically significant. The motor function of mice was evaluated by the rotarod experiment and three types of balance beam experiments. […] If the time for crossing the beams was greater than 60 seconds, it was recorded as 60 seconds. a square balance beam with a length of 80 cm and a width of 5 mm was place at a height of about 50 cm from the ground. […]

For test [2], the system named is WT mice. Description: DARPP32 protein level in striatum by Western blotting, WT mice. Format: in vivo, mouse. The following applies: 5 mg/kg/d until 25 weeks, WT Vehicle = 100, n = 3. The method, then: 7-week-old N171-82Q HD male mice were paired with female B6C3F1/J hybrid mice to obtain newborn mice. From 21 days of age, male mice were housed in separate cages. 0.5 cm of mouse tail tissue was removed to extract DNA to determine the genotype of the mouse, such that N171-82Q HD mice and WT mice needed for the experiment were obtained. The mice were randomly divided into WT Vehicle group (normal mice), WT test compound group (administration group of normal mice, 5 mg/kg/d, n=10), HD Vehicle group (blank group of HD mice, n=15), HD test compound group (administration groups 1-5 of HD mice, 5 mg/kg/d, n=10). The test compound was suspended in 1% CMC-Na solution and administered by intragastric administration until the end of the study. The weights of the mice were measured every week. Behavioral tests were performed at 12 weeks, 18 weeks, and 24 weeks of age to investigate motor function. At 20 weeks, 3 samples of tissue from each group were used for western blotting and immunohistochemistry. At 24 weeks, MRI scans were performed. At the end of the study, the effect of the test compound on the mortality of mice was evaluated. […] The total protein in the striatum tissue was extracted, and the protein level of DARPP 32 was detected by Western blotting experiment. […] The protein was extracted, and the protein level of DARPP 32 was detected by Western blotting.

Turning to `O=c1cc(-c2ccc(N3CCCCC3)cc2)oc2c(O)c(O)ccc12` [Example 1, 7,8-dihydroxy-2-(4-(piperidin-1-yl)phenyl)-4H-chromen-4-one], the “Time for crossing the beams, high-altitude balance beam (5 mm)” value in test [1] (12 w) was 11.64 ± 4.20 s; in test [1] (18 w) it was 9.91 ± 3.05 s; in test [1] (24 w), 14.18 ± 7.07 s. In test [2], the “Relative intensity of DARPP32 protein” value was found to be 96.066 ± 5.805.
